Experimental data as given in patent US20260124132A1, “COMPOSITION AND METHOD FOR INHIBITING COLLAGENASE ACTIVITY” (ACCESS BUSINESS GROUP INTERNATIONAL LLC, priority 2022, published 2026).
Values joined by “and” are separate entries in the source; they are usually repeats but may differ in a detail not shown here. Identical values can stand only once.

System: collagenase derived from Clostridium histolyticum
Test: Inhibition of collagenase (fluorescence assay with fluorogenic peptide substrate)
Type: biochemical
Conditions: for Average % inhibition: average of replicates; for Inhibition Rate of collagenase (%): individual replicate
Description: The collagenase inhibitory activity of aqueous and ethanol extracts of Cornus officinalis Sieb. et Zucc., Potentilla glabra Lodd. var. mandshurica (Maxim.) Hand.-Mazz, Amomum kravanh Pierre ex Gagnep, and Bombax ceiba Linnaeus were evaluated. The sample mixture (10 μL), 10 μg/mL of the enzyme (collagenase derived from Clostridium histolyticum) and 50 mM Tricine buffer (pH 7.5), was added to a 96-well microtiter plate. […] After a 10 minute incubation at 37° C., the substrate solution ((7-methoxycoumarin-4-yl)acetyl-L-prolyl-L-leucylglycyl-L-leucyl-[Nβ-(2,4-dinitrophenyl)-L-2,3-diaminopropionyl]-Lalanyl-L-arginine amide) was added to obtain a final concentration of 10 μM, and was allowed to react. The fluorescence values were measured after 0 minutes and 30 minutes incubation at 37° C., at an excitation of 320 nm and an emission of 405 nm, using a fluorescence plate reader (EnSpire, Perkin Elmer, Inc., Japan). EGCG was used as a positive control. The average rates of inhibition can also be appreciated with reference to the Figures.

**Q.** Which Average % inhibition (concentration 31.25 μg/ml) does the source give for `O=C(O[C@@H]1Cc2c(O)cc(O)cc2O[C@@H]1c1cc(O)c(O)c(O)c1)c1cc(O)c(O)c(O)c1` [EGCG, epigallocatechin gallate] here?
**A.** Its Average % inhibition is 19.10%.

**Q.** And the Average % inhibition (concentration 62.5 μg/ml)?
**A.** The Average % inhibition was 29.58%.

**Q.** What about the Average % inhibition (concentration 125 μg/ml) of the same compound?
**A.** Its Average % inhibition is 39.38%.

**Q.** And the Average % inhibition (concentration 250 μg/ml)?
**A.** Its Average % inhibition is 54.90%.

**Q.** What about the Average % inhibition (concentration 500 μg/ml) of the same compound?
**A.** The Average % inhibition was 80.36%.

**Q.** What about the Average % inhibition (concentration 1000 μg/ml) of the same compound?
**A.** Its Average % inhibition is 106.38%.

**Q.** What about the “Inhibition Rate of collagenase (%)” value (concentration 31.25 μg/ml) of the same compound?
**A.** Its value is 18.13% and 16.96% and 22.22%.

**Q.** And the “Inhibition Rate of collagenase (%)” value (concentration 62.5 μg/ml)?
**A.** Its value is 31.14% and 27.49% and 30.12%.

**Q.** What about the “Inhibition Rate of collagenase (%)” value (concentration 125 μg/ml) of the same compound?
**A.** The value was 41.37% and 35.23% and 41.52%.

**Q.** And the “Inhibition Rate of collagenase (%)” value (concentration 250 μg/ml)?
**A.** Its value is 52.78% and 57.02%.

**Q.** What about the “Inhibition Rate of collagenase (%)” value (concentration 500 μg/ml) of the same compound?
**A.** Its value is 79.53% and 80.99% and 80.56%.

**Q.** And the “Inhibition Rate of collagenase (%)” value (concentration 1000 μg/ml)?
**A.** Its value is 107.75% and 106.58% and 104.82%.
